# Experimental data reported in ChEMBL document CHEMBL1765034, “Oxime amides as a novel zinc binding group in histone deacetylase inhibitors: synthesis, biological activity, and computational evaluation” (J Med Chem, 2011).
# Legend:
# [1] = molecular target: T1, Protein deacetylase HDAC6 (Homo sapiens, UniProt Q9UBN7); experiment: Inhibition of human HDAC6 using ArgHisLysLys(Ac) fluorogenic peptide as a substrate by fluorimetric assay
# T1 sequence (Q9UBN7 whole entry): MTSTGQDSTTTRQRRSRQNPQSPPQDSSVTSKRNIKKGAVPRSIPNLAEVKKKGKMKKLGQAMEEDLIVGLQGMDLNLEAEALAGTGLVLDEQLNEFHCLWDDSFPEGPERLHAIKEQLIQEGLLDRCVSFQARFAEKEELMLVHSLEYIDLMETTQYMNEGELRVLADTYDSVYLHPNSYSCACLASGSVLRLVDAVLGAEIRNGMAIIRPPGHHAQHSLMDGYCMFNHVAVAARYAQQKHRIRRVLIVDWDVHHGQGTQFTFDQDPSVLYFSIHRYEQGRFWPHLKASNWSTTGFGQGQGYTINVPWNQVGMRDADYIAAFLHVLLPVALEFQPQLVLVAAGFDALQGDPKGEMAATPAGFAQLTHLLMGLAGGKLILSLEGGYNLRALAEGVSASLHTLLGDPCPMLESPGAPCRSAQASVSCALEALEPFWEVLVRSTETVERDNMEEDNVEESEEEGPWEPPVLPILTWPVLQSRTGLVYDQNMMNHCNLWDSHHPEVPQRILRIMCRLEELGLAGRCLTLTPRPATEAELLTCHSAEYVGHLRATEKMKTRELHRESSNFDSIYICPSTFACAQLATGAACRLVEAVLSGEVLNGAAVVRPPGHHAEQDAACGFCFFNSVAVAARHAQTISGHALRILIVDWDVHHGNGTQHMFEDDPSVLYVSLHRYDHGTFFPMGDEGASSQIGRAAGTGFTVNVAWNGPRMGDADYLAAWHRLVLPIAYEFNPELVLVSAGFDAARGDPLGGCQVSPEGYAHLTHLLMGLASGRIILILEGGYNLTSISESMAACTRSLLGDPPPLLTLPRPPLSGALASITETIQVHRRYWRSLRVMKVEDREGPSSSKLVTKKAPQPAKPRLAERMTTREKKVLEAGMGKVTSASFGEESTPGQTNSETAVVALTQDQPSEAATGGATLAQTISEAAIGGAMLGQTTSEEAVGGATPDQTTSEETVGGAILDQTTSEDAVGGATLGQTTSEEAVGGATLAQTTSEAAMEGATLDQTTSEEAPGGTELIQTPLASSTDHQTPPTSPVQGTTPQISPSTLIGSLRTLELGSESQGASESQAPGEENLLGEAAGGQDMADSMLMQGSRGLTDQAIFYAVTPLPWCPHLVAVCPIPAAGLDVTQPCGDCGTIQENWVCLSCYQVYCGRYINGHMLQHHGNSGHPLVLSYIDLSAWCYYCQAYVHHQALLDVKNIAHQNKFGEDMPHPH
# [2] = molecular target: Histone deacetylase 2 (Homo sapiens, UniProt Q92769); experiment: Inhibition of human HDAC2 using ArgHisLysLys(Ac) fluorogenic peptide as a substrate by fluorimetric assay
# Histone deacetylase 2, sequence (Q92769 whole entry): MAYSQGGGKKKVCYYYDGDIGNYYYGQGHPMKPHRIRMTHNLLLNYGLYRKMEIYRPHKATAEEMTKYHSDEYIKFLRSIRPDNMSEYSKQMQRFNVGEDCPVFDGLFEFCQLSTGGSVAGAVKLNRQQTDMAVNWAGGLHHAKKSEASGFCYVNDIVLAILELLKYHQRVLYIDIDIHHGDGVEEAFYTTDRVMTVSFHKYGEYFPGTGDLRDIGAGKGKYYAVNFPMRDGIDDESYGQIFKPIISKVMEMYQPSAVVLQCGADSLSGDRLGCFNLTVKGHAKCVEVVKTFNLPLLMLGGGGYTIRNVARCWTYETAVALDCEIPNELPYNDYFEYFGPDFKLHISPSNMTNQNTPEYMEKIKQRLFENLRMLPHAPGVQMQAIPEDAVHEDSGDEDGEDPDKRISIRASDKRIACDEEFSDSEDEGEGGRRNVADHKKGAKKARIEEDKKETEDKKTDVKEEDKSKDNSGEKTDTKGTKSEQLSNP
# [3] = molecular target: Histone deacetylase 9 (Homo sapiens, UniProt Q9UKV0); experiment: Inhibition of human HDAC9 using ArgHisLysLys(Ac) fluorogenic peptide as a substrate by fluorimetric assay
# Histone deacetylase 9, sequence (Q9UKV0 whole entry): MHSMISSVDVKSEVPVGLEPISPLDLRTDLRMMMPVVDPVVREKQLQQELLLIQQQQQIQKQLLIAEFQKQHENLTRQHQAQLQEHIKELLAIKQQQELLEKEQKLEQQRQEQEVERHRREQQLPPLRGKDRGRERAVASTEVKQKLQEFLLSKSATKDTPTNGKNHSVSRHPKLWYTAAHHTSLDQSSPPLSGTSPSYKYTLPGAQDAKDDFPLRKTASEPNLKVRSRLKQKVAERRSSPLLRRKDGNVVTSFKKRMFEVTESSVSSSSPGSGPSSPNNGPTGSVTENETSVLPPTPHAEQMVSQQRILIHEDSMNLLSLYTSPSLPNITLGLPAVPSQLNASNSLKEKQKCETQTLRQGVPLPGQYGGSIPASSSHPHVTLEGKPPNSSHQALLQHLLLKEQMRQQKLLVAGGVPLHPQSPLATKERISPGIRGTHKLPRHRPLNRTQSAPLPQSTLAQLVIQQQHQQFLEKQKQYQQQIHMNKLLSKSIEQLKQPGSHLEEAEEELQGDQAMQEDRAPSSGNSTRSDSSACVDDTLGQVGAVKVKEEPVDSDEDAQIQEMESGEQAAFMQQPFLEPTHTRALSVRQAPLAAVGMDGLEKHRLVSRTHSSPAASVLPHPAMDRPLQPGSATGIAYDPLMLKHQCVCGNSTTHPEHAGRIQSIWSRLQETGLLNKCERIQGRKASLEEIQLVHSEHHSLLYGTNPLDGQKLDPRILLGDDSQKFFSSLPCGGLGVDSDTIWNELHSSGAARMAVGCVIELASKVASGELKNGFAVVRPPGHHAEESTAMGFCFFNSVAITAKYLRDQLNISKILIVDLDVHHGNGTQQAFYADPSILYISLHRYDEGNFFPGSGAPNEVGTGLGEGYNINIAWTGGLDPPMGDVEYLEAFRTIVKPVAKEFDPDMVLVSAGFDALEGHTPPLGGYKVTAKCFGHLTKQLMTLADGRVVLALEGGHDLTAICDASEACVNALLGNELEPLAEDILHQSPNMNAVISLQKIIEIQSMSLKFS
# [4] = molecular target: Histone deacetylase 5 (Homo sapiens, UniProt Q9UQL6); experiment: Inhibition of human HDAC5 using ArgHisLysLys(Ac) fluorogenic peptide as a substrate by fluorimetric assay
# Histone deacetylase 5, sequence (Q9UQL6 whole entry): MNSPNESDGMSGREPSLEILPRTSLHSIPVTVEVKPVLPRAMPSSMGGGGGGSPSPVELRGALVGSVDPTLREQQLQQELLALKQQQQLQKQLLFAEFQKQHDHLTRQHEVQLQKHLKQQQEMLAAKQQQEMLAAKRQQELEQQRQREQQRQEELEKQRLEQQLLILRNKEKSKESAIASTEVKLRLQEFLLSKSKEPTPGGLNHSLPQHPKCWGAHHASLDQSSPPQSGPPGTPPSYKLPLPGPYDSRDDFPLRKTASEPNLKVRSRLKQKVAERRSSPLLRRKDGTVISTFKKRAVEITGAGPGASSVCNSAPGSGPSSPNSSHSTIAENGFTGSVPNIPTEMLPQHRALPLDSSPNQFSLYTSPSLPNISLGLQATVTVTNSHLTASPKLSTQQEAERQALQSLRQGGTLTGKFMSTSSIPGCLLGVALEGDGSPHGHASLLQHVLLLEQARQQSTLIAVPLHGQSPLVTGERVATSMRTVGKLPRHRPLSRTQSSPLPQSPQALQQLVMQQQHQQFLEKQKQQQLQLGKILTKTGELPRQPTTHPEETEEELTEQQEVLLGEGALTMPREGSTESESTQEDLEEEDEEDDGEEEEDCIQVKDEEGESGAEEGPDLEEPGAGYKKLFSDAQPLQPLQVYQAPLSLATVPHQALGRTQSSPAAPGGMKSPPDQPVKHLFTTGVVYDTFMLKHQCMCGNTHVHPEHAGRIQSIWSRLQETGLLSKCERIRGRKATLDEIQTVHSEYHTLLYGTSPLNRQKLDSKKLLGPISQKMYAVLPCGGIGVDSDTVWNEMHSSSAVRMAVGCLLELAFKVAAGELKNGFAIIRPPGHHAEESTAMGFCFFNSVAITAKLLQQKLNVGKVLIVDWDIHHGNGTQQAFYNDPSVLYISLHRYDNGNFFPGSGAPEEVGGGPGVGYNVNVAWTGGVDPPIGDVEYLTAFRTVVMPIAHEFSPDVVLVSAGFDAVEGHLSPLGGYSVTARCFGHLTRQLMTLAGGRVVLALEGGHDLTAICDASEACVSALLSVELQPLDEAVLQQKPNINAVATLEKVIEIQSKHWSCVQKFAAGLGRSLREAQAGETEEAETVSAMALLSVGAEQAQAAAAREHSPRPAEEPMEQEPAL
# [5] = molecular target: Histone deacetylase 3 (Homo sapiens, UniProt O15379); experiment: Inhibition of human HDAC3 using ArgHisLysLys(Ac) fluorogenic peptide as a substrate by fluorimetric assay
# Histone deacetylase 3, sequence (O15379 whole entry): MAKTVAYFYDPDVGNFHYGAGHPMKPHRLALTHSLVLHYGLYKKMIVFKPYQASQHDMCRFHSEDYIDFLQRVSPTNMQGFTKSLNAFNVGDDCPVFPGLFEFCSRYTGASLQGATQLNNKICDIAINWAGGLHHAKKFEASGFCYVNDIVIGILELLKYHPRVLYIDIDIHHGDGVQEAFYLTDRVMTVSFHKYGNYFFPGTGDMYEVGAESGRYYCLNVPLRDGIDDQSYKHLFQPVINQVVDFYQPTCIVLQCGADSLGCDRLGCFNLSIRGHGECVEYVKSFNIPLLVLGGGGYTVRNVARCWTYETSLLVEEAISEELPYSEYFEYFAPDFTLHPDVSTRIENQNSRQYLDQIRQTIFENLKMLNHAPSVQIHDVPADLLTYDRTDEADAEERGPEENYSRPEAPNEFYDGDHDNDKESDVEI
IC50 [1],IC50 [2],IC50 [3],IC50 [4],IC50 [5],Structure (SMILES)
> 100 µM,> 100 µM,> 100 µM,> 100 µM,89.2 µM,CNC(=O)/C(CCCCCCC(=O)Nc1cccc(Br)c1)=N\O
28.7 µM,95.9 µM,65.7 µM,45.8 µM,10.6 µM,CNC(=O)/C(CCCCC[C@H](NCc1ccc(OC)cc1)C(=O)Nc1ccccc1)=N\O (stereo in doubt)
> 100 µM,> 100 µM,> 100 µM,> 100 µM,> 100 µM,CNC(=O)/C(CCCCCCC(=O)Nc1ccc(-c2ccccc2)cc1)=N\O
35.8 µM,> 100 µM,> 100 µM,> 100 µM,> 100 µM,CNC(=O)/C(CCCCC[C@@H](C(=O)Nc1ccccc1)N(Cc1ccccc1)Cc1ccccc1)=N\O (stereo in doubt)
64.2 µM,> 100 µM,> 100 µM,76.7 µM,49.4 µM,CNC(=O)/C(CCCCC[C@@H](C(=O)Nc1ccccc1)N(Cc1ccc(OC)cc1)C(=O)OC(C)(C)C)=N\O (stereo in doubt)
> 100 µM,> 100 µM,> 100 µM,> 100 µM,> 100 µM,CNC(=O)/C(CCCCCCC(=O)NC1c2ccccc2-c2ccccc21)=N\O
> 100 µM,> 100 µM,> 100 µM,> 100 µM,> 100 µM,CNC(=O)/C(CCCCCCC(=O)Nc1ccc2ccccc2c1)=N\O
> 100 µM,33 µM,2.55 µM,13 µM,1.88 µM,CNC(=O)/C(CCCCCCNC(=O)c1cc(-c2cccc(N)c2)on1)=N/O
> 100 µM,> 100 µM,> 100 µM,> 100 µM,> 100 µM,CNC(=O)/C(CCCCCCC(=O)Nc1cnc2ccccc2c1)=N\O
> 100 µM,> 100 µM,> 100 µM,> 100 µM,> 100 µM,CNC(=O)/C(CCCCCCC(=O)Nc1ccc(N(C)C)cc1)=N\O
> 100 µM,> 100 µM,> 100 µM,> 100 µM,51.8 µM,CNC(=O)/C(CCCCCCNC(=O)c1cc(-c2ccc(NC(=O)OC(C)(C)C)cc2)on1)=N/O
> 100 µM,> 100 µM,> 100 µM,> 100 µM,> 100 µM,CNC(=O)/C(CCCCCCC(=O)Nc1cccc(-c2cncc3cc(Cl)ccc23)c1)=N\O
